Reference: ChEMBL document CHEMBL4024763, “Discovery and Optimization of Pyrrolopyrimidine Inhibitors of Interleukin-1 Receptor Associated Kinase 4 (IRAK4) for the Treatment of Mutant MYD88L265P Diffuse Large B-Cell Lymphoma” (J Med Chem, 2017)
In brackets after ≈: the same amount, converted by molar mass.

Experiments:
[1] = Lipophilicity, log D of the compound at pH 7.4 by shake flask method; format: physicochemical; conditions: buffer
[2] = Drug excretion in bile duct cannulated rat urine at 2 mg/kg, iv; format: ADME, organism-based; conditions: read-out: Drug excretion
[3] = Drug excretion in bile duct cannulated rat bile at 2 mg/kg, iv; format: ADME, organism-based; conditions: read-out: Drug excretion
[4] = Aqueous solubility of the compound at pH 7.4 at 25 degC; format: physicochemical; conditions: buffer

| logD ([1]; read-out: logD) | Structure (SMILES) | further results |
| --- | --- | --- |
| 0.6 | CN(C)[C@H]1CC[C@H](N(C)c2ncnc3[nH]cc(C4CCOCC4)c23)CC1 | – |
| – | CN(C)[C@H]1CC[C@H](Nc2ncnc3[nH]cc(C4CCCO4)c23)CC1 (stereo in doubt; 18b) | logD [1]: 0.3 |
| 2.4 | c1nc(O[C@H]2CC[C@H](N3CCOCC3)CC2)c2c(C3CCOCC3)c[nH]c2n1 | – |
| 0.1 | CN(C)[C@H]1CC[C@H](Nc2ncnc3sccc23)CC1 | – |
| 0.3 | Cc1csc2ncnc(N[C@H]3CC[C@H](N(C)C)CC3)c12 | – |
| 0.6 | Cc1[nH]c2ncnc(N[C@H]3CC[C@H](N(C)C)CC3)c2c1C | – |
| 0.1 | CN(C)[C@H]1CC[C@H](Nc2ncnc3[nH]cc(C4CCOC4)c23)CC1 (stereo in doubt; 19a) | – |
| 2.3 | N#Cc1cnc2[nH]cc(C3CCOCC3)c2c1N[C@H]1CC[C@H](N2CCOCC2)CC1 | – |
| 0.5 | CN(C)[C@H]1CC[C@H](Nc2ncnc3[nH]c4c(c23)CCC4)CC1 | – |
| 0.6 | Cc1cc2c(N[C@H]3CC[C@H](N(C)C)CC3)ncnc2s1 | – |
| 0.7 | Cc1sc2ncnc(N[C@H]3CC[C@H](N(C)C)CC3)c2c1C | – |
| -0.2 | Cc1cc2c(N[C@H]3CC[C@H](N(C)C)CC3)ncnc2[nH]1 | – |
| – | c1nc(N[C@H]2CC[C@H](N3CCOCC3)CC2)c2c(C3CCOCC3)c[nH]c2n1 | dose excreted [2]: 27%; dose excreted [3]: 2% |
| 0.3 | CN(C)[C@H]1CC[C@H](Nc2ncnc3[nH]cc(C4CCCOC4)c23)CC1 (some centres not stated) | – |
| 1.7 | c1cc(N[C@H]2CC[C@H](N3CCOCC3)CC2)c2c(C3CCOCC3)c[nH]c2n1 | – |
| 1.2 | CN(C)[C@H]1CC[C@H](Oc2ncnc3[nH]cc(C4CCOCC4)c23)CC1 | – |
| -0.6 | CN(C)[C@H]1CC[C@H](Nc2ncnc3[nH]ccc23)CC1 | – |
| 0.6 | CCc1c[nH]c2ncnc(N[C@H]3CC[C@H](N(C)C)CC3)c12 | – |
| 0.9 | CN(C)[C@H]1CC[C@H](Nc2ncnc3[nH]cc(C4CC4)c23)CC1 | – |
| 3 | c1nc(S[C@H]2CC[C@H](N3CCOCC3)CC2)c2c(C3CCOCC3)c[nH]c2n1 | solubility [4]: 5 µM (≈ 2.01 µg/mL) |
| 1.2 | CN(C)[C@H]1CC[C@H](Nc2ncnc3sc4c(c23)CCC4)CC1 | – |
| 1.7 | CN(C)[C@H]1CC[C@H](Nc2ncnc3[nH]cc(C4CCCC4)c23)CC1 | – |
| 0.4 | CN(C)[C@H]1CC[C@H](Nc2ncnc3[nH]cc(C4CCCO4)c23)CC1 (stereo in doubt; 18a) | – |
| 1.5 | CN(C)[C@H]1CC[C@H](Nc2ncnc3[nH]cc(C4CCC4)c23)CC1 | – |
| 1.5 | CN(C)[C@H]1CC[C@H](Nc2ncnc3[nH]cc(C(F)(F)F)c23)CC1 | – |
